Test system: T-cell clone SP2.2
Experiment: cells
Type: cell-based, human

In the case of `CCN(CC)CCCC(C)Nc1ccnc2cc(Cl)ccc12` (centres unmarked) [Chloroquine], the “inhibition of conjugate induced proliferation” value is reported as “can inhibit”, the “reduction of P2-induced proliferation” value is reported as 50% and the inhibition at 300 µM (Homo sapiens, T-cell, read-out: inhibition of conjugate induced proliferation) is reported as 100%.
With `CC(=O)N[C@@H](CC(C)C)C(=O)N[C@@H](CC(C)C)C(=O)N[C@H](C=O)CCCNC(=N)N` [Leupeptin] the “effect on free peptide induced proliferation” value was “almost no effect” and the “inhibition of conjugate induced proliferation” value was “can inhibit”.
